Columns and labels:
[1] = Saccharide concentration and osmotic pressure of hypertonic solutions (measured values); format: physicochemical
Description: When the hypertonic solution having an osmotic pressure of 370 mOsm/kg or higher is prepared by adding a saccharide to the culture medium, the method of the present invention is characterized in that the hypertonic solution contains the saccharide in 0.1-1 M (mol/L), preferably 0.1-0.6 M (mol/L). The relation between the concentration of saccharide (mol/L) and the osmotic pressure (mOsm/kg) can be approximated by a substantially straight line; a hypertonic solution containing 0.1 M saccharide corresponds to one having an osmotic pressure of approximately 370 mOsm/kg and a hypertonic solution containing 1 M saccharide corresponds to one having an osmotic pressure of approximately 1300-1600 mOsm/kg.
Hypertonic solutions were prepared using various saccharides and the relation between the saccharide concentration and the osmotic pressure is shown in the following table for typical saccharides.

[2] = tested on: human embryonic stem cell-derived embryoid bodies; test: Cell death inducing effect on residual stem cells in human embryonic stem cell-derived embryoid bodies and enrichment of cardiomyocytes; format: cell-based; conditions: 0.45 M or 0.6 M
Description: After passaging, human embryonic stem cells were subjected to suspension culture in a culture medium [α-MEM (minimum essential medium) (SIGMA), supplemented with 10% FBS (EQUITEC BIO), 100 units/ml penicillin, and 50 μg/ml streptomycin (GIBCO)] to induce formation of embryoid bodies. At 14-18 days after the start of differentiation (the start of suspension culture), autonomously pulsating cells started to differentiate, which was confirmed in a separate step that they were cardiomyocytes.
The embryoid bodies still maintained an autonomously pulsating ability after the passage of 3 months from the start of differentiation. They were partially treated with 0.1% collagenase (Wortington) and 0.1% trypsin (DIFCO) to be dispersed as fine cell masses. The cell masses were divided into two groups; one group was treated with 0.45 M mannitol (approximately equivalent to 720 mOsm/kg) for 2 hours, and the other group (control) was not treated with mannitol but treated with the same amount of a solution having the physiological osmotic pressure, Ads buffer (116.4 mM NaCl, 5.4 mM KCl, 5.6 mM dextrose, 10.9 mM NaH2PO4, 405.7 μM MgSO4, 20 mM Hepes, pH 7.3) for 2 hours. After the treatment, both cell groups were subjected to adherent culture for 3 days in a DMEM solution supplemented with 10% fetal calf serum.
The mannitol-treated cells and the control cells were analyzed in accordance with the experimental procedure of Example 1 using a mouse anti-Oct-3/4 monoclonal antibody (No. 084720 of BD Transduction Laboratories) and a goat anti-Nkx 2.5 antibody (No. N-19 of Santacruz) as primary antibodies, for the expression of the Oct-3/4 protein which was both a marker of embryonic stem cells and an intranuclear transcription factor, and for the expression of the Nkx 2.5 protein which was both a cardiomyocyte marker and an intranuclear transcription factor, respectively. The results for the control group, one of the two divided samples, are shown in FIG. 10 and the results for the test group subjected to 2-hr treatment with mannitol are shown in FIG. 11. The upper panels of FIG. 10 show the results of cardiomyocytes and the lower panels show the results of embryonic stem cells.
The embryoid bodies still maintained an autonomously pulsating ability after the passage of 3 months from the start of differentiation. They were partially treated with 0.1% collagenase (Wortington) and 0.1% trypsin (DIFCO) to be dispersed as fine cell masses. The cell masses were divided into two groups; one group was treated with saccharides (sugar alcohols: sorbitol, xylitol, and glycerol; sugars: sucrose and glucose; betaines: trimethylglycine) for 12 hours in an amount of 0.45 M (approximately equivalent to 700-780 mOsm/kg) or 0.6 M (approximately equivalent to 850-1000 mOsm/kg), and the other group (control) was not treated with those saccharides but treated with the same amount of a solution having the physiological osmotic pressure, Ads buffer (116.4 mM NaCl, 5.4 mM KCl, 5.6 mM dextrose, 10.9 mM NaH2PO4, 405.7 μM MgSO4, 20 mM Hepes, pH 7.3) for 2 hours. After the treatment, both cell groups were cultured for 12 hours in a DMEM solution supplemented with 10% fetal calf serum.
Samples of differentiated cells derived from human embryonic stem cells, as treated with 0.45 M glycerol (approximately equivalent to 710 mOsm/kg) or 0.6 M glycerol (approximately equivalent to 870 mOsm/kg), were examined for their morphology under the culture conditions. […] The cell death inducing effect was noticeable when the cells were exposed to glycerol for 10 hours and longer (FIG. 14).

[3] = tested on: human embryonic stem cells; test: Cell death inducing effect on human embryonic stem cells (TMRM FACS, 5-day adherent culture); format: cell-based; conditions: 0.45 M, 2 hours
Description: The human embryonic stem cells were obtained from Stem Cell Research Center, Institute for Frontier Medical Sciences, Kyoto University (ES cell center sponsored by the National Bio-Resource Project) (Suemori, H et al., Biochem. Biophys. Res. Commun., Vol. 345, 2006, pp. 926-932). The cells were cultured basically in accordance with the method described in this document. To be more specific, the human embryonic stem cells were cultured to maintain their undifferentiated state using mouse embryonic fibroblasts (MEF) that had been inactivated for growth by treatment with mitomycin C. The culture medium of F12/DMEM (1:1) (SIGMA; Product No. D6421), supplemented with 20% KO-SERUM (GIBCO), 1.6 mM L-glutamine, 0.1 mM non-essential amino acids (MEM), 0.1 mM β-mercaptoethanol (2-ME; Sigma), 100 IU/ml penicillin, 100 μg/ml streptomycin sulfate, and recombinant human basic fibroblast growth factor (bFGF; Reprotech) was used. Upon passaging, the cells were treated with 0.1% type III collagenase (Wortington) at 37° C. for 10 minutes to separate embryonic stem cell colonies. After passaging, the cells were dispersed with each other using TE (0.25% trypsin (GIBCO) and 1 mM EDTA) and in accordance with a published document (Watanabe, K. et al., Nat. Biotechnol., 2007, 25: 681-686, Epub 2007 May 27), 10 μM of a ROCK inhibitor (Y27632) was added to suppress cell death. At the same time, the mitochondria in the live cells were stained with 50 nM TMRM. Part of the stained cells were treated with an α-MEM culture medium containing 0.45 M mannitol (approximately equivalent to 720 mOsm/kg) for 2, 3 or 4 hours and three samples were prepared from these cells; the rest of the stained cells were treated with a mannitol-free α-MEM culture medium for 2 hours and a sample was prepared from these cells as a control. In the control, cells were aggregated with each other to make masses, so before FACS analysis, the treated groups and the control were given another treatment with trypsin and EDTA to disperse the cells. The cells treated with mannitol for 2, 3 or 4 hours and the control cells were analyzed by FACS for the level of mitochondrial membrane potential on the basis of the fluorescent intensity of TMRM to check the state of survival of the stem cells; the results are shown in FIG. 7. […] In addition, the TMRM-stained cells were photographed, both for the case of 2-h treatment with mannitol and for the control (FIG. 8)). […] Changes in the mitochondrial membrane potential were observed using the experimental technique of Example 5, provided that the human embryonic stem cells were treated not with mannitol, but with 0.45 M of various other saccharides (sugar alcohols: sorbitol and xylitol; sugars: sucrose and glucose; betaines: trimethylglycine) (approximately equivalent to 750-780 mOsm/kg) for 2 hours.

[4] = saccharide concentration 0.45 M in culture medium
[5] = saccharide concentration 0.6 M in culture medium
[6] = saccharide concentration 0.9 M in culture medium

Compound | Osmotic pressure [1, 4] | Osmotic pressure ([1]; saccharide concentration 0.45 M in culture medium, listed as Glycerol) | Osmotic pressure [1, 5] | Osmotic pressure ([1]; saccharide concentration 0.6 M in culture medium, listed as Glycerol) | Osmotic pressure [1, 6] | Exposure time at which the cell death inducing effect was noticeable [2] | State of differentiated cells other than cardiomyocytes (morphology) [2] | Mitochondrial membrane potential (TMRM fluorescence, FACS) [3]
OCC(O)CO [glycerol] | ~710 mOsm/kg | 706 mOsm/kg | ~870 mOsm/kg | 869 mOsm/kg | 1232 mOsm/kg | ≥ 10 h | almost all of the differentiated cells other than cardiomyocytes had been dead | –
OC[C@@H](O)[C@@H](O)[C@H](O)[C@@H](O)CO [sorbitol] | 748 mOsm/kg | – | 922 mOsm/kg | – | 1289 mOsm/kg | – | – | all of the cells treated with the above-mentioned saccharides for 2 hours had lost membrane potential
OC[C@@H](O)[C@H](O)[C@@H](O)CO [xylitol] | 779 mOsm/kg | – | 940 mOsm/kg | – | 1230 mOsm/kg | – | – | all of the cells treated with the above-mentioned saccharides for 2 hours had lost membrane potential
C[N+](C)(C)CC(=O)[O-] [trimethylglycine] | 763 mOsm/kg | – | 965 mOsm/kg | – | 1421 mOsm/kg | – | – | all of the cells treated with the above-mentioned saccharides for 2 hours had lost membrane potential
OC[C@H]1O[C@@](CO)(O[C@H]2O[C@H](CO)[C@@H](O)[C@H](O)[C@H]2O)[C@@H](O)[C@@H]1O [sucrose] | 779 mOsm/kg | – | 988 mOsm/kg | – | 1496 mOsm/kg | – | – | all of the cells treated with the above-mentioned saccharides for 2 hours had lost membrane potential
